According to paper PMC12860872, “Preclinical evaluation of DOTAGA.Glu.(FAPI)2 and DO3A.Glu.(FAPI)2 as theranostics with human dosimetry extrapolation to lutetium-177 and terbium-161 analogs” (European Journal of Nuclear Medicine and Molecular Imaging, 2025):
Values joined by “and” are separate entries in the source; they are usually repeats but may differ in a detail not shown here. Equal values may be shown once.

Key:
[1] = test system: PC3-mice; experiment: Organ clearance biological half-lives from biodistribution data; format: in vivo, mouse; settings: PC3-mice, One-Phase Decay Model
Method: Blood samples were collected from the facial vein at 1, 3, 5, 7, 10, 15, 20, 30, 45, 60, 240, and 1440 min p.i., weighed, and measured for radioactivity using a γ-counter. Results were expressed as % I.A./g of blood and plotted over time. The initial and terminal half-lives were determined using Two-Phase Decay Model. The biological half-lives of selected organs were calculated from the biodistribution data using One-Phase Decay Model (GraphPad Prism 8).

[2] = Extrapolated human dosimetry (OLINDA/EXM, ICRP-89 phantoms); design: TIAC average pancreas: unit not given beside the values; TIAC average stomach / TIAC average Small Intestine / TIAC average Left Column / TIAC average Rectum / TIAC average adrenal / TIAC average bone / TIAC average Red marrow / TIAC average salivary glands / TIAC average ROB / TIAC average Total Frac IA / TIAC average heart content / TIAC average heart wall / TIAC average liver / TIAC average spleen / TIAC average lung / TIAC average kidney: unit not given here
Method: To address inter-animal variability, the TIACs for each source organ were calculated from both the mean nTACs and the nTACs obtainend from fitting the mean ± 1 standard deviation (SD) of the normalized time-activity data, providing upper and lower bounds.
The mice-to-human TIAC extrapolation accounted for species-specific differences in relative source organ masses, m(organ), as compared to the total body weight (WB), for the mice (m) and human (h) models respectively.
(§1) The human organ masses, m(organ)h, were obtained from ICRP-89 adult male and female reference phantoms, while the murine organ masses, m(organ)m, were derived from the standard MOBY mouse model. The extrapolated human TIACs, TIACh were entered in the OLINDA/EXM software to compute the absorbed doses to target organs and the effective dose for adult male, female, and gender-averaged human models. […]
The TIACs, for [177Lu]Lu-DOTAGA.Glu.(FAPI)2 and [177Lu]Lu-DO3A.Glu.(FAPI)2, were determined by time integration of the nTACs. To account for the inter-animal variability, the TIACs for each source organ were calculated using both the mean nTACs and the nTACs obtainend from fitting the mean ±1 standard deviation (SD) of the normalized time-activity data. This approach provided the upper and the lower bounds for the estimated TIACs.
The mice-to-human TIAC extrapolation was obtained considering the different (species-specific) relative source organ masses, m(organ), as compared to the total body weight (WB), for the mice (m) and human (h) models respectively.
as §1, with “the” for “ICRP-89”, “models phantoms defined in ICRP-89,” for “phantoms,”, “TIACs values, TIACh, for each source organ” for “TIACs, TIACh”, “input into the kinetic module of” for “entered in”, “software (version 2.1, HERMES Medical Solutions AB, Stockholm, Sweden)” for “software”

[3] = ICRP 89 Adult Female, extrapolated
[4] = ICRP 89 Adult Male, extrapolated
[5] = human extrapolation, male-female range

Bone clearance half-life, 95% confidence interval [1]: 14.85 to 18.53 h
Kidney clearance half-life, 95% confidence interval [1]: 18.73 to 31.89 h
Liver clearance half-life, 95% confidence interval [1]: 51.46 to 92.13 h
Pancreas clearance half-life, 95% confidence interval [1]: 12.66 to 19.50 h
Salivary glands clearance half-life, 95% confidence interval [1]: 13.95 to 20.7 h
Tumor clearance half-life, 95% confidence interval [1]: 17.58 to 22.85 h
Absorbed dose (AD average) Adrenals [2, 3]: 9.96E-03 mGy/Mbq
Absorbed dose (AD average) Brain [2, 3]: 2.63E-02 mGy/Mbq
Absorbed dose (AD average) Breasts [2, 3]: 2.57E-02 mGy/Mbq
Absorbed dose (AD average) Esophagus [2, 3]: 2.66E-02 mGy/Mbq
Absorbed dose (AD average) Eyes [2, 3]: 2.63E-02 mGy/Mbq
Absorbed dose (AD average) Gallbladder Wall [2, 3]: 2.80E-02 mGy/Mbq
Absorbed dose (AD average) Heart Wall [2, 3]: 2.49E-02 mGy/Mbq
Absorbed dose (AD average) Left colon [2, 3]: 6.93E-02 mGy/Mbq
Absorbed dose (AD average) Ovaries [2, 3]: 2.76E-02 mGy/Mbq
Absorbed dose (AD average) Rectum [2, 3]: 7.09E-02 mGy/Mbq
Absorbed dose (AD average) Right colon [2, 3]: 4.88E-02 mGy/Mbq
Absorbed dose (AD average) Stomach Wall [2, 3]: 3.65E-02 mGy/Mbq
Absorbed dose (AD average) Thymus [2, 3]: 2.70E-02 mGy/Mbq
Absorbed dose (AD average) Thyroid [2, 3]: 2.64E-02 mGy/Mbq
Absorbed dose (AD average) Urinary Bladder Wall [2, 3]: 2.73E-02 mGy/Mbq
Absorbed dose (AD average) Uterus [2, 3]: 2.76E-02 mGy/Mbq
Effective dose (average) [2, 3]: 3.49E-02
Absorbed dose (AD average) Adrenals [2, 4]: 7.77E-03 mGy/Mbq
Absorbed dose (AD average) Brain [2, 4]: 2.00E-02 mGy/Mbq
Absorbed dose (AD average) Esophagus [2, 4]: 2.06E-02 mGy/Mbq
Absorbed dose (AD average) Eyes [2, 4]: 2.00E-02 mGy/Mbq
Absorbed dose (AD average) Gallbladder Wall [2, 4]: 2.20E-02 mGy/Mbq
Absorbed dose (AD average) Heart Wall [2, 4]: 2.04E-02 mGy/Mbq
Absorbed dose (AD average) Left colon [2, 4]: 5.77E-02 mGy/Mbq
Absorbed dose (AD average) Prostate [2, 4]: 2.07E-02 mGy/Mbq
Absorbed dose (AD average) Rectum [2, 4]: 5.76E-02 mGy/Mbq
Absorbed dose (AD average) Right colon [2, 4]: 3.94E-02 mGy/Mbq
Absorbed dose (AD average) Stomach Wall [2, 4]: 2.83E-02 mGy/Mbq
Absorbed dose (AD average) Testes [2, 4]: 2.00E-02 mGy/Mbq
Absorbed dose (AD average) Thymus [2, 4]: 2.03E-02 mGy/Mbq
Absorbed dose (AD average) Thyroid [2, 4]: 2.04E-02 mGy/Mbq
Absorbed dose (AD average) Urinary Bladder Wall [2, 4]: 2.07E-02 mGy/Mbq
Effective dose (average) ([2]; ICRP 89 Adult Male, extrapolated, in mSv/MBq (unit assumed)): 2.56E-02
absorbed dose kidneys [2, 5]: 0.02–0.03 Gy/GBq
absorbed dose liver [2, 5]: 0.06–0.07 Gy/GBq
absorbed dose salivary glands [2, 5]: 0.07–0.09 Gy/GBq
total body and effective doses [2, 5]: 0.027–0.034 Gy/GBq
TIAC average Left Column ([2]; human female, extrapolated): 0.0781
TIAC average ROB ([2]; human female, extrapolated): 16.8035
TIAC average Rectum ([2]; human female, extrapolated): 0.0808
TIAC average Red marrow ([2]; human female, extrapolated): 0.2208
TIAC average Small Intestine ([2]; human female, extrapolated): 0.1025
TIAC average Total Frac IA ([2]; human female, extrapolated): 21.2881
TIAC average adrenal ([2]; human female, extrapolated): 0.0008
TIAC average bone ([2]; human female, extrapolated): 2.8185
TIAC average heart content ([2]; human female, extrapolated): 0.0908
TIAC average heart wall ([2]; human female, extrapolated): 0.0329
TIAC average kidney ([2]; human female, extrapolated): 0.0717
TIAC average liver ([2]; human female, extrapolated): 1.1228
TIAC average lung ([2]; human female, extrapolated): 0.4313
TIAC average pancreas ([2]; human female, extrapolated): 0.0313
TIAC average salivary glands ([2]; human female, extrapolated): 0.0707
TIAC average spleen ([2]; human female, extrapolated): 0.0929
TIAC average stomach ([2]; human female, extrapolated): 0.0501
TIAC average Left Column ([2]; human male, extrapolated): 0.0642
TIAC average ROB ([2]; human male, extrapolated): 15.5056
TIAC average Rectum ([2]; human male, extrapolated): 0.0642
TIAC average Red marrow ([2]; human male, extrapolated): 0.2359
TIAC average Small Intestine ([2]; human male, extrapolated): 0.0958
TIAC average Total Frac IA ([2]; human male, extrapolated): 21.2881
TIAC average adrenal ([2]; human male, extrapolated): 0.0007
TIAC average bone ([2]; human male, extrapolated): 3.1852
TIAC average heart content ([2]; human male, extrapolated): 0.1028
TIAC average heart wall ([2]; human male, extrapolated): 0.0357
TIAC average kidney ([2]; human male, extrapolated): 0.0664
TIAC average liver ([2]; human male, extrapolated): 1.1865
TIAC average lung ([2]; human male, extrapolated): 0.4477
TIAC average pancreas ([2]; human male, extrapolated): 0.0300
TIAC average salivary glands ([2]; human male, extrapolated): 0.0706
TIAC average spleen ([2]; human male, extrapolated): 0.0881
TIAC average stomach ([2]; human male, extrapolated): 0.0446
SMILES: N#C[C@@H]1CC(F)(F)CN1C(=O)CNC(=O)c1ccnc2ccc(OCCCCNC(=O)CC[C@H](NC(=O)CN3CCN(CC(=O)[O-])CCN(CC(=O)[O-])CCN(CC(=O)[O-])CC3)C(=O)NCCCCOc3ccc4nccc(C(=O)NCC(=O)N5CC(F)(F)C[C@H]5C#N)c4c3)cc12.[177Lu+3] [[^177Lu]Lu-DO3A.Glu.(FAPI)2]
Absorbed dose (AD average) Kidneys [2, 3]: 2.54E-02 ± 0.001 mGy/Mbq and 2.54E-02 mGy/Mbq
Absorbed dose (AD average) Liver [2, 3]: 7.30E-02 ± 0.003 mGy/Mbq and 7.30E-02 mGy/Mbq
Absorbed dose (AD average) Lungs [2, 3]: 4.16E-02 ± 0.01 mGy/Mbq and 4.16E-02 mGy/Mbq
Absorbed dose (AD average) Osteogenic Cells [2, 3]: 6.24E-02 ± 0.002 mGy/Mbq and 6.24E-02 mGy/Mbq
Absorbed dose (AD average) Pancreas [2, 3]: 2.62E-02 ± 0.001 mGy/Mbq and 2.62E-02 mGy/Mbq
Absorbed dose (AD average) Red Marrow [2, 3]: 3.06E-02 ± 0.001 mGy/Mbq and 3.06E-02 mGy/Mbq
Absorbed dose (AD average) Salivary Glands [2, 3]: 8.81E-02 ± 0.01 mGy/Mbq and 8.81E-02 mGy/Mbq
Absorbed dose (AD average) Small Intestine [2, 3]: 4.29E-02 ± 0.003 mGy/Mbq and 4.29E-02 mGy/Mbq
Absorbed dose (AD average) Spleen [2, 3]: 6.42E-02 ± 0.003 mGy/Mbq and 6.42E-02 mGy/Mbq
Absorbed dose (AD average) Total Body [2, 3]: 3.44E-02 ± 0.002 mGy/Mbq and 3.44E-02 mGy/Mbq
Absorbed dose (AD average) Kidneys [2, 4]: 2.09E-02 ± 0.001 mGy/Mbq and 2.09E-02 mGy/Mbq
Absorbed dose (AD average) Liver [2, 4]: 6.00E-02 ± 0.002 mGy/Mbq and 6.00E-02 mGy/Mbq
Absorbed dose (AD average) Lungs [2, 4]: 3.40E-02 ± 0.01 mGy/Mbq and 3.40E-02 mGy/Mbq
Absorbed dose (AD average) Osteogenic Cells [2, 4]: 6.64E-02 ± 0.002 mGy/Mbq and 6.64E-02 mGy/Mbq
Absorbed dose (AD average) Pancreas [2, 4]: 2.12E-02 ± 0.001 mGy/Mbq and 2.12E-02 mGy/Mbq
Absorbed dose (AD average) Red Marrow [2, 4]: 2.43E-02 ± 0.001 mGy/Mbq and 2.43E-02 mGy/Mbq
Absorbed dose (AD average) Salivary Glands [2, 4]: 7.27E-02 ± 0.01 mGy/Mbq and 7.27E-02 mGy/Mbq
Absorbed dose (AD average) Small Intestine [2, 4]: 3.27E-02 ± 0.002 mGy/Mbq and 3.27E-02 mGy/Mbq
Absorbed dose (AD average) Spleen [2, 4]: 5.27E-02 ± 0.002 mGy/Mbq and 5.27E-02 mGy/Mbq
Absorbed dose (AD average) Total Body [2, 4]: 2.71E-02 ± 0.001 mGy/Mbq and 2.71E-02 mGy/Mbq
